Patent US10787448B2, “Indolizino [3,2-C] quinoline-based fluorescent probe” (SEOUL NATIONAL UNIVERSITY R & DB FOUNDATION, priority 2015, dated 2020)
Entries after “also recorded” stand apart in the source; their conditions may differ. Values belong to the compound of their own block, whether it stands above or below them.

Legend:
[1] = biological target: Human Serum Albumin (HSA) (Homo sapiens, UniProt P02768); test: Protein binding by fluorescence change (FRET, Job's plot, titration, quantum yield)
Human Serum Albumin (HSA), sequence (P02768 25-609): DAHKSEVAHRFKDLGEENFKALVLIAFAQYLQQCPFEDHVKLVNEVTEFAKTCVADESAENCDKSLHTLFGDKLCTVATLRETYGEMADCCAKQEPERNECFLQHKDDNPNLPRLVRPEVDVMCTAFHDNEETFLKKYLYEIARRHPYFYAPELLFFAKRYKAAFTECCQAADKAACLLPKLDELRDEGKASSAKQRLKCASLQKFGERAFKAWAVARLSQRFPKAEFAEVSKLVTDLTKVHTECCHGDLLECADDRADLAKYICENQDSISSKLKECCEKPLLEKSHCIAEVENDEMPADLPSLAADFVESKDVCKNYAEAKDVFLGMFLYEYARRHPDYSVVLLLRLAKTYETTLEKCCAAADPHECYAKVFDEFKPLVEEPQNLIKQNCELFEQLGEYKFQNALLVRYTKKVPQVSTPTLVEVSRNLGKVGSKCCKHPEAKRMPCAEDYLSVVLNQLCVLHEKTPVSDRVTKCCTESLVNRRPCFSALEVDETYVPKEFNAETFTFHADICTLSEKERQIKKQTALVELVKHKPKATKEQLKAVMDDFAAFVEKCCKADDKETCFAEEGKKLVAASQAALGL
Procedure: Using a fluorescence spectrophotometer, it was confirmed whether the indolizino[3,2-c]quinoline compound of the present invention binds to a protein. Specifically, among the indolizino[3,2-c]quinoline compounds, 13 types of compounds with high fluorescence in a Tris buffer (pH 7.5) were added to Bovine Serum Albumin (BSA) and Human Serum Albumin (HSA) to observe a fluorescence change.

[2] = test system: DNA oligomers (48 bp) tetO sequences; test: Binding to DNA by fluorescence spectrophotometer; conditions: hybridized tetO DNA oligomers added, 1 minute incubation
Procedure: Using a fluorescence spectrophotometer, it was confirmed whether the indolizino[3,2-c]quinoline compound of the present invention binds to DNA. First, DNA oligomers (48 bp) used in the experiment are tetO sequences, and the base sequences thereof are as follows.
The same molarities of oligomers were mixed while being heated at 95° C. for 5 minutes and cooled to room temperature for 2 hours to hybridize, the fluorescence of each of the indolizino[3,2-c]quinoline compounds of the present invention was measured, a corresponding equivalent of DNA oligomer was added to a cuvette, and then incubated while blocking light for 1 minute to measure fluorescence again.

[3] = Analysis of optical characteristics (absorption, fluorescence emission, quantum yield) in solvents; type: physicochemical; conditions: for Fluorescence Emission Intensity / Peak emission wavelength λmax em(nm) / Relative fluorescence Emission Intensitynorm: H2O at 2 μM; for Peak emission wavelength λmax em(nm): excited at the longest absorption maxima; for Relative fluorescence Emission Intensitynorm: normalized fluorescence intensity
Procedure: Fluorescence emission spectra were obtained at 20° C. using a JASCO FP-6500 spectrofluorometer, a 10 mM stock solution prepared by dissolving an indolizino[3,2-c]quinoline compound in DMSO was diluted in a solvent. […] Absorption spectra were recorded at room temperature using a Perkin Elmer Lamda 20 UV/VIS spectrometer. […]
Further, the compounds (excluding Entry #51-57, etc.) of Formula 1 were subjected to spectrum analyses in various solvents, and the results are shown in Tables 6 and 7, and FIGS. 5C and 5D.

[4] = Photostability of fluorescence in aqueous solution or ethanol (natural light, blue light); type: physicochemical; conditions: aqueous solution; for stability of fluorescence under irradiation with blue light: blue light for 2 hours; for photostability: fluorescence over time: natural light, up to 6 hours
Procedure: As a candidate material that can be applied to a fluorescent probe, to confirm how long fluorescence persists in materials with high fluorescence intensity in an aqueous solution among the indolizino[3,2-c]quinoline compounds, photostability according to time in an aqueous solution or ethanol solvent was evaluated as follows.
First, fluorescence of a corresponding material was measured using a cuvette, and the fluorescence per time for the cuvette sample was remeasured until 6 to 7 hours in a natural light state so as to confirm fluorescence stability.
Further, from the above example, when the indolizino[3,2-c]quinoline compounds including the IQ 3, 4, 6 and 8 compounds in which the fluorescence is stably maintained in an aqueous solution for approximately 6 hours are represented by Formula X, some materials in which neither A, B, C nor D ring has a substituent were selected and irradiated with blue light in an aqueous solution, and then a stability experiment was carried out to confirm the maintenance of the fluorescence.

[5] = test system: cells; test: Co-staining / co-localization with DAPI, MitoTracker or LysoTracker; type: cell-based; conditions: for organelle selectivity by co-localization: MitoTracker or LysoTracker
[6] = test system: HeLa cells; test: Cell permeability: fluorescence imaging and live cell confocal imaging; type: cell-based; conditions: HeLa cells
Procedure: HeLa cells were seeded in a 96-well plate and incubated for 24 hours. The cells were treated with the indolizino[3,2-c]quinoline compounds, and incubated at 37° C. under a 5% CO2 condition for 30 minutes. After removal of the medium, the cells were washed with 1×DPBS. The washed cells were fixed with 4% formaldehyde at room temperature for 10 minutes, and washed with 1×DPBS. A cell image was screened using an Operetta HTS imaging system (PerkinElmer).
After HeLa cells were seeded to account for 70 to 80% of the area of a confocal dish (SPL life science) and overnight cultured, the indolizino[3,2-c]quinoline compounds (10 μM) prepared by mixing fresh DMEM after removal of the existing DMEM medium were dispensed, and the cells were incubated for 30 minutes to 1 hour at 37° C. Afterward, if needed, LysoTracker (50 nM) was mixed with DMEM to remove the existing medium and then dispensed to the cells, and the cells were incubated for 30 minutes at 37° C. After incubation, without washing, the cells were examined by a confocal laser microscope (Leica TCS SP8 SMD, Leica, Mannheim, Germany). However, when co-stained with a LysoTracker, the cells were washed with DPBS twice before the microscopy. […]

- fluorescence change on binding to HSA [1]: increasing fluorescence intensity
Structure (SMILES): c1ccc2cc(-c3nc4ccccc4c4cc5ccccn5c34)ccc2c1 [IQ 10, 6-(naphthalen-2-yl)indolizino[3,2-c]quinoline]

- shift of maximum emission wavelength on addition of DNA oligomer [2]: wavelength to shorter wavelength
- Maximum absorption wavelength λmax abs(nm) [3]: 400 nm
- quantum yield (Φ) ([3]; DW, standard Rhodamine 6G): 0.008
- quantum yield (Φ) ([3]; EtOH, standard Coumarin 153): 0.421
- Fluorescence Emission Intensity [3]: 15.0
- Peak emission wavelength λmax em(nm) [3]: 523.5 nm
- Relative fluorescence Emission Intensitynorm [3]: 0.06
Structure (SMILES): Cc1cccn2c1cc1c3ccccc3nc(-c3ccco3)c12 [compound 18]

Structure (SMILES): c1ccc(-c2nc3ccccc3c3cc4ccccn4c23)nc1 [IQ 5, 6-(pyridin-2-yl)indolizino[3,2-c]quinoline]
- stability of fluorescence under irradiation with blue light [4]: still stably exhibited fluorescence intensity

- fluorescence change on binding to HSA [1]: increasing fluorescence intensity
- fluorescence (intensity, in words) [3]: strong fluorescence
- solvent-dependent (environment-sensitive) tendency of the emission [3]: solvatochromic effect
- peak emission (λmax) ([3]; aqueous solution (H2O)): 465.5 nm
- peak emission (λmax) ([3]; ethanol solvent (EtOH)): 516 nm
- quantum yield ([3]; in ethanol using coumarin 153 as a standard): 0.402
Structure (SMILES): c1ccc2c(-c3nc4ccccc4c4cc5ccccn5c34)cccc2c1 [IQ 9, 6-(naphthalen-1-yl)indolizino[3,2-c]quinoline]

- change in fluorescence intensity on addition of DNA oligomer [2]: gradually decreased
- shift of maximum emission wavelength on addition of DNA oligomer [2]: shorter wavelength
Structure (SMILES): Cc1cccn2c1cc1c3ccccc3nc(-c3ccco3)c12 [IQ 18, 6-(furan-2-yl)-11-methylindolizino[3,2-c]quinoline]
- fluorescence change on light irradiation [5]: increasing fluorescence by receiving light; also recorded: fluorescence is increased
- organelle selectivity by co-localization [5]: selectively stains the mitochondria
- Pearson's coefficient ([5]; co-localization experiment with MitoTracker): ≥ 0.8
- intracellular organelles in which fluorescence is detected [6]: distributed in the mitochondria

- fluorescence change on binding to HSA [1]: increasing fluorescence intensity
Structure (SMILES): COc1ccc(-c2nc3ccccc3c3c(Cl)c4ccccn4c23)cc1 [IQ 40, 12-chloro-6-(4-methoxyphenypindolizino[3,2-c]quinoline]

- shift of maximum emission wavelength on addition of DNA oligomer [2]: wavelength to shorter wavelength
- quantum yield (Φ) ([3]; DW, standard Rhodamine 6G): 0.060
- quantum yield (Φ) ([3]; EtOH, standard Coumarin 153): 0.222
- Fluorescence Emission Intensity [3]: 80.5
- Peak emission wavelength λmax em(nm) [3]: 478 nm
- Relative fluorescence Emission Intensitynorm [3]: 0.35
Structure (SMILES): COC(=O)c1c2c3ccccc3nc(-c3cc(OC)cc(OC)c3)c2n2ccccc12 [compound 19]

- fluorescence change on binding to HSA [1]: increasing fluorescence intensity
- quantum yield (QY) when bound to HSA [1]: 0.4
Structure (SMILES): COc1ccc(-c2nc3ccccc3c3cc4c(C)cccn4c23)cc1OC [IQ 17, 6-(3,4-dimethoxyphenyl)-11-methylindolizino[3,2-c]quinoline]
- intracellular molecule recognized [6]: recognized DNA
- intracellular organelles in which fluorescence is detected [6]: stained intensively in the nuclear area

- shift of maximum emission wavelength on addition of DNA oligomer [2]: wavelength to longer wavelength
- Maximum absorption wavelength λmax abs(nm) [3]: 391 nm
- quantum yield (Φ) ([3]; DW, standard Rhodamine 6G): 0.065
- quantum yield (Φ) ([3]; EtOH, standard Coumarin 153): 0.604
- Fluorescence Emission Intensity [3]: 31.7
- Peak emission wavelength λmax em(nm) [3]: 524.5 nm
- Relative fluorescence Emission Intensitynorm [3]: 0.14
Structure (SMILES): COc1ccc(-c2nc3ccccc3c3cc4c(C)cccn4c23)cc1OC [compound 17]

- shift of maximum emission wavelength on addition of DNA oligomer [2]: wavelength to shorter wavelength
- quantum yield (Φ) ([3]; DW, standard Rhodamine 6G): 0.010
- quantum yield (Φ) ([3]; EtOH, standard Coumarin 153): 0.050
Structure (SMILES): COC(=O)c1c2c3ccccc3nc(-c3cccs3)c2n2ccccc12 [compound 44]

- fluorescence change on binding to HSA [1]: increasing fluorescence intensity
Structure (SMILES): COc1ccc(-c2nc3ccccc3c3cc4ccccn4c23)cc1OC [IQ 8, 6-(3,4-dimethoxyphenyl)indolizino[3,2-c]quinoline]
- photostability: fluorescence over time [4]: stably maintained in an aqueous solution up to 6 hours with almost no change
- intracellular organelles in which fluorescence is detected [6]: stained intensively in the nuclear area

- change in fluorescence intensity on addition of DNA oligomer [2]: No change in fluorescence intensity
- quantum yield (Φ) ([3]; DW, standard Rhodamine 6G): 0.033
- quantum yield (Φ) ([3]; EtOH, standard Coumarin 153): 0.557
Structure (SMILES): COc1ccc(-c2nc3ccccc3c3c(-c4ccc(F)cc4)c4ccccn4c23)cc1 [compound 45]

- fluorescence change on binding to HSA [1]: increasing fluorescence intensity
Structure (SMILES): Cc1ccc(-c2nc3ccccc3c3cc4ccccn4c23)cc1 [IQ 3, 6-(p-tolyl)indolizino[3,2-c]quinoline]
- stability of fluorescence under irradiation with blue light [4]: still stably exhibited fluorescence intensity
- photostability: fluorescence over time [4]: stably maintained in an aqueous solution up to 6 hours with almost no change

- fluorescence change on binding to HSA [1]: increasing fluorescence intensity
Structure (SMILES): c1ccc(-c2nc3ccccc3c3cc4ccccn4c23)cc1 [IQ 4, 6-phenylindolizino[3,2-c]quinoline]
- stability of fluorescence under irradiation with blue light [4]: still stably exhibited fluorescence intensity
- photostability: fluorescence over time [4]: stably maintained in an aqueous solution up to 6 hours with almost no change

- quantum yield (QY) when bound to HSA [1]: 0.43
- emission after adding 1 equiv. of the compound to HSA ([1]; excited at 280 nm): approximately 450 nm
- emission of the compound ([1]; excited at 280 nm): approximately 500 nm
- Kd ([1]; titration): 1.89 µM
Structure (SMILES): COc1cc(OC)cc(-c2nc3ccccc3c3cc4ccccn4c23)c1 [IQ 7, 6-(3,5-Dimethoxyphenyl)indolizino[3,2-c]quinoline]
- fluorescence change on binding to HSA [1]: fluorescence intensity became higher than the fluorescence of the material; also recorded: increasing fluorescence intensity
- FRET with HSA ([1]; excited at 280 nm, 1 equiv. of compound): fluorescence resonance energy transfer (FRET) phenomenon occurred
- intracellular organelles in which fluorescence is detected [6]: stained intensively in the nuclear area

- fluorescence change on binding to HSA [1]: increasing fluorescence intensity
Structure (SMILES): COc1cc(OC)cc(-c2nc3ccccc3c3cc4c(C)cccn4c23)c1 [IQ 16, 6-(3,5-dimethoxyphenyl)-11-methylindolizino[3,2-c]quinoline]
- staining pattern compared with conventional dyes [5]: staining almost similar to DAPI
- intracellular molecule recognized [6]: recognized DNA
- intracellular organelles in which fluorescence is detected [6]: stained intensively in the nuclear area

- change in fluorescence intensity on addition of DNA oligomer [2]: Increase in fluorescence intensity
- quantum yield (Φ) ([3]; DW, standard Rhodamine 6G): 0.142
- quantum yield (Φ) ([3]; EtOH, standard Coumarin 153): 0.624
Structure (SMILES): COc1ccc(-c2nc3ccccc3c3c(Cl)c4ccccn4c23)cc1 [compound 40]

- shift of maximum emission wavelength on addition of DNA oligomer [2]: wavelength to longer wavelength
- quantum yield (Φ) ([3]; DW, standard Rhodamine 6G): 0.006
- quantum yield (Φ) ([3]; EtOH, standard Coumarin 153): 0.386
Structure (SMILES): CN(C)c1ccc(-c2nc3ccccc3c3cc4ccccn4c23)cc1 [compound 36]

- change in fluorescence intensity on addition of DNA oligomer [2]: No change in fluorescence intensity
- quantum yield (Φ) ([3]; DW, standard Rhodamine 6G): 0.039
- quantum yield (Φ) ([3]; EtOH, standard Coumarin 153): 0.604
Structure (SMILES): COc1ccc(-c2nc3ccccc3c3c(-c4ccc(Cl)cc4)c4ccccn4c23)cc1 [compound 46]

- shift of maximum emission wavelength on addition of DNA oligomer [2]: wavelength to shorter wavelength
Structure (SMILES): c1csc(-c2nc3ccccc3c3cc4ccccn4c23)c1 [compound 42]

- shift of maximum emission wavelength on addition of DNA oligomer [2]: wavelength to longer wavelength
- quantum yield (Φ) ([3]; DW, standard Rhodamine 6G): 0.001
- quantum yield (Φ) ([3]; EtOH, standard Coumarin 153): 0.324
Structure (SMILES): CCN(CC)c1ccc(-c2nc3ccccc3c3cc4ccccn4c23)cc1 [compound 37]

Structure (SMILES): COc1ccc(-c2nc3ccccc3c3cc4cc(/C=C/c5ccccc5)ccn4c23)cc1 [IQ-B19, (E)-6-(4-methoxyphenyl)-10-styrylindolizino[3,2-c]quinoline]
- organelle selectivity by co-localization [5]: selectively present in the lysosome
- fluorescence (intensity, in words) [3]: high fluorescence in other solvents as well as an aqueous solution
